The subject of data set [1] is E. coli 14. Description: MIC, liquid medium test tube series dilution test. Type of data set: cell-based. Conditions: E. coli 14, 24 hours, 37°C. In outline: (§1)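 Read-out: visual turbidity after 24 h at 37°C. The MIC, in units/ml, corresponds to the non-turbid tube in a liquid-medium test tube dilution series prepared in complete nutrient medium.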
For data set [2], the system named is E. coli 183/58. In words: MIC, liquid medium test tube series dilution test. Type of data set: cell-based. Conditions: E. coli 183/58, 24 hours, 37°C. An outline of the steps: as §1
For data set [3], the system named is E. coli A 261. Description: MIC, liquid medium test tube series dilution test. Conditions: E. coli A 261, 24 hours, 37°C. Type of data set: cell-based. An outline of the steps:
as §1

Data set [4] concerns E. coli C 165. In words: MIC, liquid medium test tube series dilution test. The class given is cell-based. The note with it: E. coli C 165, 24 hours, 37°C. An outline of the steps:
as §1

In data set [5] the test system is Klebsiella 63. Description: MIC, liquid medium test tube series dilution test. Type of data set: cell-based. Conditions: Klebsiella 63, 24 hours, 37°C. In outline: as §1
The subject of data set [6] is Klebsiella K 10. In words: MIC, liquid medium test tube series dilution test. Type of data set: cell-based. Conditions: Klebsiella K 10, 24 hours, 37°C. An outline of the steps:
as §1

Data set [7] has as its system Streptoc. faec. ATCC 9790. In words: MIC, liquid medium test tube series dilution test. Conditions: Strep. faec. (Enterococcus) ATCC 9790, 24 hours, 37°C. Type of data set: cell-based. An outline of the steps: as §1
Data set [8] concerns Proteus vulg. 1017. In words: MIC, liquid medium test tube series dilution test. The class given is cell-based, Proteus vulgaris. Conditions: Proteus vulg. 1017, 24 hours, 37°C. An outline of the steps:
as §1

Data set [9] deals with Proteus vulg. 3400. In words: MIC, liquid medium test tube series dilution test. The class given is cell-based, Proteus vulgaris. The note with it: Proteus vulg. 3400, 24 hours, 37°C. In outline: as §1
Data set [10] deals with Psdm. aerug. Bonn. In words: MIC, liquid medium test tube series dilution test. Type of data set: cell-based, Pseudomonas aerug. The note with it: 24 hours, 37°C. An outline of the steps:
as §1

The test system of data set [11] is Psdm. aerug. Walter. In words: MIC, liquid medium test tube series dilution test. Type of data set: cell-based, Pseudomonas aerug. Conditions: 24 hours, 37°C. In outline:
as §1

The subject of data set [12] is Staph. aureus 133. In words: MIC, liquid medium test tube series dilution test. The class given is cell-based, Staphylococcus aureus. Conditions: Staph. aureus 133, 24 hours, 37°C. An outline of the steps: as §1
For data set [13], the system named is Staph. aureus 1777 E. In words: MIC, liquid medium test tube series dilution test. Type of data set: cell-based, Staphylococcus aureus. The note with it: 24 hours, 37°C. An outline of the steps: as §1
The subject of data set [14] is Gram-negative and Gram-positive bacteria. Description: Antibacterial effect, general statements. The note with it: MIC comparison.
Data set [15] is described as follows: Acute toxicity (LD50), intravenous injection into the vein of the tail. Type of data set: in vivo. The note with it: mouse, in vivo, iv; i.v. into tail vein, white mice. The source says:
Acute toxicity (LD50) in white mice after
intravenous injection into the vein of the […]

“And” between values parts separate entries of the source, which are not always exact repeats. Equal entries are not always repeated.

The term LD50 denotes the dose at which mortality reaches 50%. A high value points to lower toxicity.

Consider `CN(C(=O)N[C@@H](C(=O)N[C@@H]1C(=O)N2[C@@H]1SC(C)(C)[C@@H]2C(=O)O)c1ccccc1)C(=O)OC1CCCCC1` [Example 29, Sodium D(-)-α-(3-cyclohexyloxycarbonyl-3-methyl-ureido)-benzylpenicillin], for which the MIC in [1] is on record as 3.1 units/ml; in [2], 3.1 units/ml; in data set [2] (listed as (A) of Example 29), 3.12 units/ml; in data set [3], over 400 units/ml; in data set [3] (listed as (A) of Example 29) it was 400 units/ml; in data set [4] it was 6.3 units/ml. Besides, the MIC in data set [4] (listed as (A) of Example 29) stood at 6.25 units/ml; in data set [5] it was 100 units/ml; in data set [6] it was 200 units/ml; in data set [6] (listed as (A) of Example 29), 200 units/ml; in data set [7], 100 units/ml; in data set [8] it was 12.5 units/ml. Moreover, the MIC in data set [8] (listed as (A) of Example 29) is 12.5 units/ml; in [9], 12.5 units/ml; in data set [9] (listed as (A) of Example 29) it was 12.5 units/ml; in data set [10] it was 25 units/ml; in data set [11], 50 units/ml; in data set [12], under 0.8 units/ml. Moreover, the MIC in [12] (listed as (A) of Example 29) is under 0.7 units/ml; in data set [13], 200 units/ml; in data set [13] (listed as (A) of Example 29), 200 units/ml. Further, the “Biological activity compared between penicillin (A) and penicillin (B)” value in data set [14] is on record as “identical within the limit of error”.
For the molecule `C=CCOC(=O)N(C)C(=O)N[C@@H](C(=O)N[C@@H]1C(=O)N2[C@@H]1SC(C)(C)[C@@H]2C(=O)O)c1ccccc1` [Example 30, Sodium D(-)-α-(3-allyloxycarbonyl-3-methyl-ureido)-benzylpenicillin], the MIC in [1] is 4-20 units/ml; in data set [1] (listed as (A) of Example 30), 0.8-4 units/ml; in data set [2], 20-100 units/ml; in [2] (listed as (A) of Example 30), 4-20 units/ml; in data set [3], over 500 units/ml; in data set [3] (listed as (A) of Example 30), 100-500 units/ml. The MIC was 20-100 units/ml in data set [4]; 4-20 units/ml in data set [4] (listed as (A) of Example 30); 20-100 units/ml and 100-500 units/ml in [5]; 20-100 units/ml and 100-500 units/ml in data set [6]; 20-100 units/ml in data set [7]; 100-500 units/ml in data set [8]. Moreover, the MIC in data set [8] (listed as (A) of Example 30) is 20-100 units/ml; in data set [9] it was 100-500 units/ml and 20-100 units/ml; in data set [10] it was 100-500 units/ml; in [10] (listed as (A) of Example 30), 4-20 units/ml; in data set [11], 100-500 units/ml; in data set [11] (listed as (A) of Example 30), 20-100 units/ml. Also, the MIC in data set [12] and in [12] (listed as (A) of Example 30) was 0.8-4 units/ml each time. Also, the “Biological activity compared between penicillin (A) and penicillin (B)” value in data set [14] was “identical within the limit of error”.
Turning to `CCN(C(=O)N[C@@H](C(=O)N[C@@H]1C(=O)N2[C@@H]1SC(C)(C)[C@@H]2C(=O)O)c1ccccc1)C(=O)c1ccccc1` [Example 60, Sodium D(-)-α-(3-benzoyl-3-ethyl-ureido)-benzylpenicillin], the MIC is 6.25 units/ml in [1]; 12.5 units/ml in data set [2]; over 400 units/ml in [3]; 25 units/ml in [4]; 50 units/ml in data set [5]; 100 units/ml in data set [6]. For the same molecule, the MIC in data set [7] was 100 units/ml; in [8], 25 units/ml; in data set [9], 50 units/ml; in data set [10], 25 units/ml; in data set [11] it was 50 units/ml; in [12], under 0.78 units/ml. The molecule also had an MIC in data set [13] of 50 units/ml. Besides, the LD50 in [15] is 1500 mg/kg.

The values are drawn from patent US3974140A, “Ureidoacetamido-penicillins” (Bayer Aktiengesellschaft, priority 1970, dated 1976).
